Test results: publication PMC3083445, “Mastering the Canonical Loop of Serine Protease Inhibitors: Enhancing Potency by Optimising the Internal Hydrogen Bond Network” (PLoS ONE, 2011)
Where two headings read alike, the source gives them in different places. Where a SMILES comes first, the peptide text is derived from it. Bridges are numbered along the chain shown (N, C = ends).

Tests used:
KLK4 [1] = target: T1, KLK4 (Homo sapiens, UniProt Q9Y5K2); assay: biochemical
Description: (§3) Increasing concentrations of inhibitors were incubated with various concentration of protease (final concentrations: KLK4, 1.5 nM; KLK12, 15 nM; KLK14, 2 nM; trypsin, 1 nM; matriptase, 4 nM; thrombin, 25 nM; α-chymotrypsin 25 nM) for 20 min in 200 µl assay buffer (100 mM Tris-HCl, 100 mM NaCl2, 0.005% triton-X, pH 8.0). Assays with thrombin and trypsin included 10 mM CaCl2. Enzyme activity was initiated by addition of substrate in 100 µl assay buffer (final concentration 100 µM; see Table 2). The rate of hydrolysis was measured at 405 nm over 7 min and was linear over this period. […] For SFTI-FCQR Asp14, K i was determined by inhibition at various substrate concentrations using the competitive inhibition model and non-linear regression in Prism 5 (GraphPad Software Inc). The K i for this inhibitor was also determined using the Morrison equation for tight binding inhibitors [43] (FVQR-pNA K M = 679.9±113.1 µM [16]) and non-linear regression in Prism 5. […] The k on and k off were determined from the lag phases and steady state of inhibition as previously described [44] using assay conditions as above and 500 µM substrate.

KLK14 [2] = target: T2, KLK14 (Homo sapiens, UniProt Q9P0G3); assay: Amidolytic inhibition assay of KLK14 with pNA substrate; assay type: biochemical
T2 construct: polyhistidine (C); made in house; host or cells: Sf9 insect cells
T2 sequence (Q9P0G3 25-251): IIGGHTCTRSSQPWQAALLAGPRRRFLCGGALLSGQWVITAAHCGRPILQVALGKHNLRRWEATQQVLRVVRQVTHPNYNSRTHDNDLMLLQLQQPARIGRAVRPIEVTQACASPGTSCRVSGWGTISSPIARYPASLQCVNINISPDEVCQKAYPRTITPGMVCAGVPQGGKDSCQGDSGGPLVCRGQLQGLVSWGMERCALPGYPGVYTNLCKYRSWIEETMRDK
Description: (§1) Assays with thrombin and trypsin included 10 mM CaCl2. […] Proteolysis fragments were separated on 10% polyacrylamide gels.

[3] = Stability of SFTI variants in culture with prostate cancer cells; assay type: in vitro ADME; details: human; 1 µM inhibitor in serum-containing media on LNCaP, 22Rv1 and PC3 monolayers; residual KLK4 inhibition; read-out: half-life in cell culture
Description: (§2) The half-life in cell culture for SFTI-FCQR Asn14 and SFTI-FCQR Lys14 was determined using previously described methods. Briefly, monolayers of LNCaP, 22Rv1 and PC3 cells were established in RPMI 1640 medium supplemented with 10% foetal calf serum (HyClone), 100 U/ml penicillin (Invitrogen) and 100 µg/ml streptomycin (Invitrogen). Cells were treated ±1 µM inhibitor (SFTI-FCQR Asn14 or SFTI-FCQR Lys14) in fresh serum-containing media. Samples of media were taken at 24 hr intervals and boiled at 97°C for 15 min to denature serum protein. Residual inhibition by SFTI-FCQR variants was determined in competitive kinetic assays (as above), adding a volume of media to give 10 nM SFTI-FCQR Asn14 or 25 nM SFTI-FCQR Lys14 at 0 hr. Media without inhibitor was used to adjust for any endogenous media inhibition and data represent the mean ± SEM of three triplicate experiments.

trypsin = target: T3, trypsin (Bos taurus, UniProt P00760); assay: Inhibition of fibrinogen proteolysis by trypsin (SDS-PAGE); assay type: biochemical, bovine; details: up to 10,000 nM inhibitor; 7 µM fibrinogen, 15 min
T3 construct: Bovine β-trypsin, bovine α-chymotrypsin and human thrombin were obtained from Sigma; purchased Sigma
T3 sequence (P00760 24-246): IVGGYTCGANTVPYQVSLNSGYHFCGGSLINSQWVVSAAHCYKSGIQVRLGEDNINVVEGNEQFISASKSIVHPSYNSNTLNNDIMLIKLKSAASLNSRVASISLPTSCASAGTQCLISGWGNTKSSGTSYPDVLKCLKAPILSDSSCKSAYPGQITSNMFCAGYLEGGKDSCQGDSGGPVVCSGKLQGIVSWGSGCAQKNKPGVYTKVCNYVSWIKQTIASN
Description: as §1

[4] = Bioavailability / serum levels in mice by LC-MS; assay type: in vivo; details: 3 mg/kg
Description: Stability and bioavailability of SFTI-FCQR Asn14 in vivo was assessed in BALB/cFoxn1/Arc mice by oral, intravenous and intraperitoneal delivery (3 mg/kg). Inhibitor was dissolved in PBS at a concentration of 0.6 mg/ml prior to dosing. Serum levels of SFTI-FCQR Asn14 were subsequently measured by Liquid Chromatography-Mass Spectrometry (LC-MS) at Tetra Q laboratories (University of Queensland, Brisbane, Australia). This study was carried out in strict accordance to the recommendations of the Australian Code of Practice for the Care and Use of Animals for Scientific purposes (7th edition 2004) and the protocol was approved by the University of Queensland Animal Ethics Committee (ABS group) which assigned the project approval code TetraQ/479/09/Bluebox. All efforts were made to minimize suffering by experimental animals.

KLK12 = target: T4, KLK12 (Homo sapiens, UniProt Q9UKR0); assay: Inhibition of fibrinogen proteolysis by KLK12 (SDS-PAGE); assay type: biochemical; details: up to 10,000 nM inhibitor; 7 µM fibrinogen, 180 min
T4 construct: purchased R&D Systems
T4 sequence (Q9UKR0 18-248): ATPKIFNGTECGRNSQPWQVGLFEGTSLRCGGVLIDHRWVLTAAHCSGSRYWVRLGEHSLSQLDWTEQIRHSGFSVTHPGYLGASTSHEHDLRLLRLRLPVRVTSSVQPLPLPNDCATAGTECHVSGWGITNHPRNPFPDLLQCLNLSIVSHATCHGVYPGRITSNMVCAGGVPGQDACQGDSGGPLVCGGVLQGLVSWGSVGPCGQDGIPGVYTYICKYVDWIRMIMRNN
Description: as §1

β-Trypsin = target: T5, β-Trypsin (Bos taurus, UniProt P00760); assay: Amidolytic inhibition assay of β-trypsin; assay type: biochemical, bovine
T5 construct: Bovine β-trypsin, bovine α-chymotrypsin and human thrombin were obtained from Sigma; purchased Sigma
T5 sequence (P00760 24-246): T3 sequence (P00760 24-246)
Description: as §1

KLK4 [5] = target: T1, KLK4
Description: as §3

Thrombin [6] = target: T6, Thrombin (Homo sapiens, UniProt P00734); assay: Amidolytic inhibition assay of thrombin; assay type: biochemical
T6 construct: Bovine β-trypsin, bovine α-chymotrypsin and human thrombin were obtained from Sigma; purchased Sigma
Description: as §1

Matriptase = target: T7, Matriptase (Homo sapiens, UniProt Q9Y5Y6); assay: Amidolytic inhibition assay of matriptase; assay type: biochemical
T7 construct: purchased R&D Systems
T7 sequence (Q9Y5Y6 615-855 limits assumed): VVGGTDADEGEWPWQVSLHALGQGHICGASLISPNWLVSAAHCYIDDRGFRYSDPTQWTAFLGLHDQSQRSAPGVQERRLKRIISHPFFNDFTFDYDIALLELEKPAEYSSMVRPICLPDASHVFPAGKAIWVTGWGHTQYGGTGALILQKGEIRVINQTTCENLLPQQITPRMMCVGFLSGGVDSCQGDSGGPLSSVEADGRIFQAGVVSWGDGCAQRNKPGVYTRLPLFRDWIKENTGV
Description: as §1

KLK4 [7] = target: T1, KLK4; assay: Inhibition of fibrinogen proteolysis by KLK4 (SDS-PAGE); assay type: biochemical; design: polyhistidine (C); made in house; host or cells: Sf9 insect cells; details: 7 µM fibrinogen, 90 min
Description: as §1

α-chymotrypsin = target: T8, α-chymotrypsin (Bos taurus, UniProt P00766); assay: Amidolytic inhibition assay of α-chymotrypsin; assay type: biochemical, bovine
T8 construct: Bovine β-trypsin, bovine α-chymotrypsin and human thrombin were obtained from Sigma; purchased Sigma
Description: as §1

KLK14 [8] = target: T2, KLK14; assay: Inhibition of fibrinogen proteolysis by KLK14 (SDS-PAGE); assay type: biochemical; details: up to 10,000 nM inhibitor; 7 µM fibrinogen, 90 min
Description: as §1

[9] = test system: LNCaP, 22Rv1 and PC3 cells; design: method as in PMID 19549601; details: cited from earlier work
[10] = test system: LNCaP, 22Rv1 and PC3 cells; assay: Stability of SFTI variants in culture with prostate cancer cells; assay type: in vitro ADME; details: 1 µM inhibitor in serum-containing media on prostate cancer cells; residual KLK4 inhibition
Description: as §2

KLK4 [11] = target: T1, KLK4; assay: in vitro; details: recombinant KLK4 (isolated protease), pH 8
Description: as §3

Thrombin [12] = target: T6, Thrombin; design: method as in PMID 11549459; details: substrate N-t-Boc-LRR-AMC; cited from earlier work
[13] = relative to SFTI-FCQR Asp14 (Table 2)

T1 sequence (Q9Y5K2 31-254): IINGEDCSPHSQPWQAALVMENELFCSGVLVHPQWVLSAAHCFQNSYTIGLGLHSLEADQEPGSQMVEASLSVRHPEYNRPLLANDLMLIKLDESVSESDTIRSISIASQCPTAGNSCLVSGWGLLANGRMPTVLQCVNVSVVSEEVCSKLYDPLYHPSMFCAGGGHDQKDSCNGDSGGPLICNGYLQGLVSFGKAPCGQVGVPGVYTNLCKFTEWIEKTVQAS

CC[C@H](C)[C@@H]1NC(=O)[C@@H]2CCCN2C(=O)[C@@H]2CCCN2C(=O)[C@H]([C@@H](C)CC)NC(=O)[C@H](CO)NC(=O)[C@H](CCCNC(=N)N)NC(=O)[C@H](CCC(N)=O)NC(=O)[C@@H]2CSSC[C@H](NC1=O)C(=O)N[C@@H](Cc1ccccc1)C(=O)N1CCC[C@H]1C(=O)N[C@@H](C)C(=O)NCC(=O)N[C@@H](Cc1ccccc1)C(=O)N2 [SFTI-FCQR Ala14] (cyclo(GFCQRSIPPICFPA); disulfide 3-11)
IC50 (KLK4 [1]): 26.2 ± 0.85 nM
Ki (KLK4 [1]): 18.3 ± 3.36 nM

CC[C@H](C)[C@@H]1NC(=O)[C@@H]2CCCN2C(=O)[C@@H]2CCCN2C(=O)[C@H]([C@@H](C)CC)NC(=O)[C@H](CO)NC(=O)[C@H](CCCNC(=N)N)NC(=O)[C@H](CCC(N)=O)NC(=O)[C@@H]2CSSC[C@H](NC1=O)C(=O)N[C@@H](Cc1ccccc1)C(=O)N1CCC[C@H]1C(=O)N[C@@H](CC(N)=O)C(=O)NCC(=O)N[C@@H](Cc1ccccc1)C(=O)N2 [SFTI-FCQR Asn14] (cyclo(GFCQRSIPPICFPN); disulfide 3-11)
relative increase in KLK14 inhibition compared to SFTI-FCQR Asp14 (KLK14 [2]; [13]): six-fold
IC50 (KLK14 [2]; substrate Ac-GSLR-pNA 100 µM, KLK14 2 nM): 251 ± 21.9 nM
half-life at 1 µM [3]: 55 to 70 h
inhibition of trypsin fibrinogen proteolysis (trypsin): No inhibition
half-life ([4]; BALB/cFoxn1/Arc, mouse, serum, IV and IP): 25 to 28 min
level at time molar at 4 h ([4]; BALB/cFoxn1/Arc, mouse, serum, IV and IP, irrespective of delivery route, read-out: residual inhibitor concentration in serum after 4 hours): 10 ± 0.8 nM
serum levels after oral delivery ([4]; oral, LC-MS): did not result in detectable levels of inhibitor in serum
inhibition of KLK12 fibrinogen proteolysis (KLK12): No inhibition
relative increase in trypsin inhibition compared to SFTI-FCQR Asp14 (β-Trypsin; [13]): two-fold
IC50 (β-Trypsin; substrate BAPNA 100 µM, trypsin 1 nM, 10 mM CaCl2): 2180 ± 145 nM
calculated second order rate constant (k off/K i) (KLK4 [5]; calculated from k off and K i): 8.03e+08 M⁻¹ s⁻¹
fold improvement in KLK4 inhibition compared to SFTI-FCQR Asp14 (KLK4 [5]; [13]): 125 fold
IC50 (KLK4 [5]; substrate FVQRpNA 100 µM, KLK4 1.5 nM, 20 min preincubation (SFTI-FCQR Asn14: 0.15 nM KLK4 over 2 hr; Lys14 assayed immediately after addition)): 0.0635 ± 0.0024 nM
inhibition of thrombin (Thrombin [6]; at 10,000 nM inhibitor): no inhibition
IC50 (Thrombin [6]; substrate Bz-FVRpNA 100 µM, thrombin 25 nM, 10 mM CaCl2): > 10000 nM
Ki (KLK4 [1]): 0.0386 ± 0.006 nM
inhibition of matriptase (Matriptase; at 10,000 nM inhibitor): no inhibition
IC50 (Matriptase; substrate Bz-FVRpNA 100 µM, matriptase 4 nM): > 10000 nM
lowest inhibitor concentration blocking KLK4 proteolysis of fibrinogen (KLK4 [7]): 62.5 nM
inhibition of α-chymotrypsin (α-chymotrypsin; at 10,000 nM inhibitor): no inhibition
IC50 (α-chymotrypsin; substrate WpNA 100 µM, α-chymotrypsin 25 nM): > 10000 nM
inhibition of KLK14 fibrinogen proteolysis (KLK14 [8]): No inhibition

CC[C@H](C)[C@@H]1NC(=O)[C@@H]2CCCN2C(=O)[C@@H]2CCCN2C(=O)[C@H]([C@@H](C)CC)NC(=O)[C@H](CO)NC(=O)[C@H](CCCNC(=N)N)NC(=O)[C@H](CCC(N)=O)NC(=O)[C@@H]2CSSC[C@H](NC1=O)C(=O)N[C@@H](Cc1ccccc1)C(=O)N1CCC[C@H]1C(=O)N[C@@H](CC(=O)O)C(=O)NCC(=O)N[C@@H](Cc1ccccc1)C(=O)N2 [SFTI-FCQR Asp14] (cyclo(GFCQRSIPPICFPD); disulfide 3-11)
Ki (KLK4 [5]; competitive inhibition model, various substrate concentrations, FVQRpNA): 3.62 ± 0.26 nM
Ki (KLK4 [1]): 3.89 ± 0.4 nM
lowest inhibitor concentration blocking KLK4 proteolysis of fibrinogen (KLK4 [7]): 250 nM
stability in culture with prostate cancer cells [9]: highly resistant to breakdown

CC[C@H](C)[C@@H]1NC(=O)[C@@H]2CCCN2C(=O)[C@@H]2CCCN2C(=O)[C@H]([C@@H](C)CC)NC(=O)[C@H](CO)NC(=O)[C@H](CCCNC(=N)N)NC(=O)[C@H](CCC(N)=O)NC(=O)[C@@H]2CSSC[C@H](NC1=O)C(=O)N[C@@H](Cc1ccccc1)C(=O)N1CCC[C@H]1C(=O)NCC(=O)NCC(=O)N[C@@H](Cc1ccccc1)C(=O)N2 [SFTI-FCQR Gly14] (cyclo(GFCQRSIPPICFPG); disulfide 3-11)
IC50 (KLK4 [1]): 14.7 ± 1.09 nM
Ki (KLK4 [1]): 10.4 ± 2.87 nM

CC[C@H](C)[C@@H]1NC(=O)[C@@H]2CCCN2C(=O)[C@@H]2CCCN2C(=O)[C@H]([C@@H](C)CC)NC(=O)[C@H](CO)NC(=O)[C@H](CCCNC(=N)N)NC(=O)[C@H](CCC(N)=O)NC(=O)[C@@H]2CSSC[C@H](NC1=O)C(=O)N[C@@H](Cc1ccccc1)C(=O)N1CCC[C@H]1C(=O)N[C@@H](CCCCN)C(=O)NCC(=O)N[C@@H](Cc1ccccc1)C(=O)N2 [SFTI-FCQR Lys14] (cyclo(GFCQRSIPPICFPK); disulfide 3-11)
initial activity lost within the first 24 hr in cell culture [10]: two-thirds
IC50 (KLK4 [1]): 6.07 ± 0.13 nM
Ki (KLK4 [1]): 3.56 ± 0.27 nM
half-life (KLK4 [11]): 56.3 ± 6.2 min

CC[C@H](C)[C@@H]1NC(=O)[C@@H]2CCCN2C(=O)[C@@H]2CCCN2C(=O)[C@H]([C@@H](C)CC)NC(=O)[C@H](CO)NC(=O)[C@H](CCCNC(=N)N)NC(=O)[C@H](CCC(N)=O)NC(=O)[C@@H]2CSSC[C@H](NC1=O)C(=O)N[C@@H](Cc1ccccc1)C(=O)N1CCC[C@H]1C(=O)N[C@@H](CO)C(=O)NCC(=O)N[C@@H](Cc1ccccc1)C(=O)N2 [SFTI-FCQR Ser14] (cyclo(GFCQRSIPPICFPS); disulfide 3-11)
IC50 (KLK4 [1]): 29.2 ± 1.08 nM
Ki (KLK4 [1]): 21.2 ± 3.81 nM

SFTI-1: 1.4 kDa cyclic Bowman-Birk serine protease inhibitor isolated from sunflower (Helianthus annuus) seeds
Ki (Thrombin [12]): 5050 nM
